This passage reports GI50 and TGI results from PubChem BioAssay (NCI).

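48-hour exposure; five concentrations; linearly interpolated endpoints. Here, GI50 denotes the concentration required for 50% inhibition of growth. TGI: concentration producing complete growth inhibition.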 Bounds are passed on as bounds.

Some test systems named below: MOLT-4 leukemia; NCI-H522 lung; OVCAR-3 ovarian; U251 CNS; PC-3 prostate; BT-549 breast; COLO 205 colon; DU-145 prostate.
Assay in all cases: inhibition of tumour cell growth, NCI panel, 48 h

For the compound `CC(=O)c1c(C)c2cnc(Nc3ccc(N4CCNCC4)cn3)nc2n(C2CCCC2)c1=O`, the GI50 in the test on MOLT-4 leukemia is 0.548 µM; in the test on NCI-H522 lung it was 13 µM; with OVCAR-3 ovarian, 15.9 µM; in the test on U251 CNS, 4.25 µM; in the test on PC-3 prostate, 1740 nM; in the test on BT-549 breast it was 13.6 µM. For the same compound, the results for the GI50 in the test on COLO 205 colon and in the test on DU-145 prostate were 1330 nM and 9.82 µM, respectively. Also, the TGI is 24.9 µM in the test on MOLT-4 leukemia; 27.4 µM with NCI-H522 lung; 30.4 µM in the test on OVCAR-3 ovarian; 20.3 µM in the test on U251 CNS; 20.8 µM in the test with PC-3 prostate; 27.3 µM in the test with BT-549 breast. In addition, the TGI with COLO 205 colon was 17.6 µM; in the test on DU-145 prostate, 21.7 µM.
Turning to `CCN1C(=O)N(CC)C2C1N=C(SC)N2/N=C/C=C/c1ccccc1OC` (stereo unspecified), the GI50 with MOLT-4 leukemia is 0.457 µM; in the test with NCI-H522 lung, 0.308 µM; in the test on OVCAR-3 ovarian, 0.375 µM; with U251 CNS it was 0.411 µM; in the test with PC-3 prostate it was 470 nM; in the test with BT-549 breast, 0.479 µM. Also, the GI50 in the test on COLO 205 colon was 324 nM; in the test on DU-145 prostate, 0.428 µM. For the same compound, the TGI in the test with MOLT-4 leukemia is greater than 46.1 µM; in the test on OVCAR-3 ovarian, greater than 54.2 µM; with U251 CNS, greater than 33.1 µM; in the test with PC-3 prostate, greater than 45.3 µM; with BT-549 breast, 19.6 µM; in the test on DU-145 prostate, greater than 45.3 µM.
Take `CN(CCCCCl)P(=O)(OCc1ccc([N+](=O)[O-])o1)OCC1OC(n2cc([N+](=O)[O-])c(=O)[nH]c2=O)CC1O` (stereo unspecified): the GI50 in the test with MOLT-4 leukemia was 25.1 µM; in the test with NCI-H522 lung, greater than 100 µM; in the test on OVCAR-3 ovarian, 43.6 µM; with U251 CNS, greater than 100 µM; with PC-3 prostate it was greater than 100000 nM; in the test with BT-549 breast it was 46.2 µM. For the same compound, the GI50 was 44000 nM in the test with COLO 205 colon and greater than 100 µM in the test on DU-145 prostate. In addition, the TGI in the test on MOLT-4 leukemia, in the test on NCI-H522 lung, with OVCAR-3 ovarian, in the test on U251 CNS, in the test with PC-3 prostate and in the test on BT-549 breast was greater than 100 µM each time. Besides, the TGI with COLO 205 colon and in the test with DU-145 prostate was greater than 100 µM throughout.
For the compound `S=C(SSC(=S)N1CCCCC1)N1CCCCC1`, the GI50 with MOLT-4 leukemia is 17.2 µM; in the test with NCI-H522 lung, 12.2 µM; with OVCAR-3 ovarian it was 11.3 µM; with U251 CNS, 12.2 µM; in the test on PC-3 prostate it was 12300 nM; in the test with BT-549 breast it was 16.6 µM. The GI50 was 11800 nM in the test on COLO 205 colon and 15.5 µM in the test with DU-145 prostate. Further, the TGI with MOLT-4 leukemia came to 49.5 µM; with NCI-H522 lung, 30.1 µM; in the test on OVCAR-3 ovarian, 24.2 µM; with U251 CNS, 45.2 µM; with PC-3 prostate, 51.4 µM; in the test on BT-549 breast, 44.6 µM. Besides, the TGI in the test on COLO 205 colon is 24.1 µM; in the test on DU-145 prostate it was greater than 100 µM.
For the compound `COC(=O)CC1=C(C)/C(=C/c2[nH]c(-c3ccc[nH]3)cc2OC)N=C1C`, the GI50 in the test on MOLT-4 leukemia was 0.17 µM; in the test on NCI-H522 lung, 0.215 µM; with OVCAR-3 ovarian it was 0.204 µM; in the test with U251 CNS, 0.175 µM; in the test on PC-3 prostate, 210 nM; in the test with BT-549 breast, 0.196 µM. The values for the GI50 in the test with COLO 205 colon and in the test on DU-145 prostate were 123 nM and 0.315 µM, respectively. Also, the TGI in the test with MOLT-4 leukemia was determined as 3.48 µM; in the test on NCI-H522 lung, 1.27 µM; in the test with OVCAR-3 ovarian, 1.36 µM; with U251 CNS, 1.81 µM; in the test with PC-3 prostate, 11.2 µM; with BT-549 breast it was 4.29 µM. Moreover, the TGI in the test with COLO 205 colon came to 0.814 µM; in the test on DU-145 prostate it was 12.8 µM.
Turning to `CSc1nc2c(c(=O)n1C)C(c1ccccc1)C1=C(N2)/C(=C/c2ccccc2)CCC1` (stereo unspecified), the GI50 with MOLT-4 leukemia is 4.9 µM; in the test with NCI-H522 lung, 5.93 µM; with OVCAR-3 ovarian, 4.41 µM; with U251 CNS, 3.99 µM; with PC-3 prostate, 7110 nM; with BT-549 breast it was 11.9 µM. In addition, the GI50 in the test with COLO 205 colon was 10300 nM; in the test on DU-145 prostate it was 8.02 µM. For the same compound, the TGI is greater than 100 µM with MOLT-4 leukemia; greater than 100 µM with NCI-H522 lung; greater than 100 µM in the test with OVCAR-3 ovarian; 34.9 µM with U251 CNS; greater than 100 µM in the test with PC-3 prostate; greater than 100 µM in the test with BT-549 breast. Further, the TGI in the test on COLO 205 colon and in the test with DU-145 prostate was greater than 100 µM in each case.
As to `COc1ccc(-c2c(-c3ccc(C#N)c(F)c3)nc(N3CCC(N)CC3)n(C)c2=O)cc1F`, the GI50 in the test on MOLT-4 leukemia was 15.5 µM; in the test with NCI-H522 lung, 13.6 µM; in the test on OVCAR-3 ovarian, 21.7 µM; in the test with U251 CNS, 14.6 µM; in the test on PC-3 prostate it was 12000 nM; in the test with BT-549 breast, 14.6 µM. Besides, the GI50 was 13300 nM with COLO 205 colon and 25.5 µM with DU-145 prostate. For the same compound, the TGI came out at 46.2 µM in the test with MOLT-4 leukemia; 30.7 µM with NCI-H522 lung; 77.4 µM with OVCAR-3 ovarian; 32.8 µM in the test with U251 CNS; 30.6 µM with PC-3 prostate; 30.6 µM in the test on BT-549 breast. For the same compound, the TGI is 31.1 µM with COLO 205 colon and greater than 100 µM in the test on DU-145 prostate.
Regarding `Cc1c(C(N)=O)sc2nc(C)n(/N=c3\scc(-c4ccccc4)n3Cc3ccccc3)c(=O)c12`, the GI50 in the test with MOLT-4 leukemia is 24.6 µM; in the test with NCI-H522 lung it was 1.73 µM; in the test on OVCAR-3 ovarian, 2.28 µM; with U251 CNS, 3.32 µM; with PC-3 prostate, 2150 nM; in the test on BT-549 breast it was 2.41 µM. For the same compound, the GI50 with COLO 205 colon was 2390 nM; in the test with DU-145 prostate it was 3.9 µM. The TGI was greater than 100 µM in the test with MOLT-4 leukemia; 7.23 µM in the test on NCI-H522 lung; 8.58 µM in the test with OVCAR-3 ovarian; greater than 100 µM with U251 CNS; 8.31 µM in the test with PC-3 prostate; 8.89 µM with BT-549 breast. Moreover, the TGI in the test on COLO 205 colon is 7.32 µM; in the test on DU-145 prostate, greater than 100 µM.
Consider `COc1cc(C(=O)O[C@H](C(=O)NCCCCNC(=O)[C@@H](OC(=O)c2cc(OC)cc3c(C)cccc23)[C@]2(C)CO2)[C@]2(C)CO2)c2cccc(C)c2c1`, for which the GI50 was less than 0.01 µM with MOLT-4 leukemia; 0.0207 µM with NCI-H522 lung; 0.207 µM in the test on OVCAR-3 ovarian; less than 0.01 µM in the test with U251 CNS; 114 nM in the test on PC-3 prostate; 0.305 µM in the test on BT-549 breast. For the same compound, in the test with COLO 205 colon, the GI50 was 111 nM. For the same compound, the TGI in the test on MOLT-4 leukemia was 0.676 µM; in the test with NCI-H522 lung it was 10.9 µM; in the test with OVCAR-3 ovarian it was 0.73 µM; in the test on U251 CNS, 0.107 µM; with PC-3 prostate, 1.5 µM; in the test on BT-549 breast it was 5.53 µM. Besides, the TGI in the test with COLO 205 colon amounted to 3.65 µM; with DU-145 prostate it was 0.352 µM.
